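Results reflect a 48-hour exposure of cells in 96-well plates to compound at five concentrations. TGI: total growth inhibition.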
What was measured:
Assay in all cases: inhibition of tumour cell growth, NCI panel, 48 h
[1] = tested on: 786-0 renal
[2] = tested on: A498 renal
[3] = tested on: A549 NSCLC
[4] = tested on: ACHN renal
[5] = tested on: BT-549 breast
[6] = tested on: CAKI-1 renal
[7] = tested on: CCRF-CEM leukemia
[8] = tested on: COLO 205 colon
[9] = tested on: DU-145 prostate
[10] = tested on: EKVX NSCLC
[11] = tested on: HCT-116 colon
[12] = tested on: HCT-15 colon
[13] = tested on: HL-60(TB) leukemia
[14] = tested on: HOP-62 NSCLC
[15] = tested on: HOP-92 NSCLC
[16] = tested on: HS 578T breast
[17] = tested on: HT29 colon
[18] = tested on: IGROV1 ovarian
[19] = tested on: K-562 leukemia
[20] = tested on: KM12 colon
[21] = tested on: LOX IMVI melanoma
[22] = tested on: M14 melanoma
[23] = tested on: MALME-3M melanoma
[24] = tested on: MCF7 breast
[25] = tested on: MDA-MB-231 breast
[26] = tested on: MDA-MB-435
[27] = tested on: MDA-N
[28] = tested on: MOLT-4 leukemia
[29] = tested on: NCI-H226 lung
[30] = tested on: NCI-H23 lung
[31] = tested on: NCI-H522 lung
[32] = tested on: NCI/ADR-RES ovarian
[33] = tested on: OVCAR-3 ovarian
[34] = tested on: OVCAR-4 ovarian
[35] = tested on: OVCAR-5 ovarian
[36] = tested on: OVCAR-8 ovarian
[37] = tested on: PC-3 prostate
[38] = tested on: RPMI-8226 leukemia
[39] = tested on: RXF 393 renal
[40] = tested on: SF-268 CNS
[41] = tested on: SF-295 CNS
[42] = tested on: SF-539 CNS
[43] = tested on: SK-MEL-2 melanoma
[44] = tested on: SK-MEL-28 melanoma
[45] = tested on: SK-MEL-5 melanoma
[46] = tested on: SK-OV-3 ovarian
[47] = tested on: SN12C renal
[48] = tested on: SNB-19 CNS
[49] = tested on: SNB-75 CNS
[50] = tested on: SR leukemia
[51] = tested on: SW-620 colon
[52] = tested on: T-47D breast
[53] = tested on: TK-10 renal
[54] = tested on: U251 CNS
[55] = tested on: UACC-257 melanoma
[56] = tested on: UO-31 renal

## COc1c(Cl)ccc(Cl)c1-c1nnc(-c2c(Cl)c(Cl)c(Cl)c(Cl)c2-c2nc3ccc(C(=O)c4ccccc4)cc3[nH]2)o1
[1]
  TGI: > 100 µM
[2]
  TGI: 85.5 µM
[3]
  TGI: > 100 µM
[4]
  TGI: > 100 µM
[5]
  TGI: > 100 µM
[6]
  TGI: > 100 µM
[7]
  TGI: 91.7 µM
[8]
  TGI: 78.2 µM
[9]
  TGI: > 100 µM
[10]
  TGI: > 100 µM
[11]
  TGI: > 100 µM
[12]
  TGI: > 100 µM
[13]
  TGI: > 100 µM
[14]
  TGI: > 100 µM
[15]
  TGI: > 100 µM
[16]
  TGI: > 100 µM
[17]
  TGI: > 100 µM
[18]
  TGI: > 100 µM
[19]
  TGI: > 100 µM
[20]
  TGI: > 100 µM
[21]
  TGI: > 100 µM
[22]
  TGI: > 100 µM
[23]
  TGI: > 100 µM
[24]
  TGI: > 100 µM
[25]
  TGI: > 100 µM
[26]
  TGI: 68 µM
[27]
  TGI: 46.4 µM
[28]
  TGI: > 100 µM
[29]
  TGI: 78.5 µM
[30]
  TGI: > 100 µM
[31]
  TGI: > 100 µM
[32]
  TGI: > 100 µM
[33]
  TGI: > 100 µM
[34]
  TGI: > 100 µM
[35]
  TGI: > 100 µM
[36]
  TGI: > 100 µM
[37]
  TGI: > 100 µM
[38]
  TGI: 87.4 µM
[39]
  TGI: 65.4 µM
[40]
  TGI: > 100 µM
[41]
  TGI: 85.7 µM
[42]
  TGI: 54 µM
[43]
  TGI: > 100 µM
[44]
  TGI: > 100 µM
[45]
  TGI: 36 µM
[46]
  TGI: > 100 µM
[47]
  TGI: > 100 µM
[48]
  TGI: > 100 µM
[49]
  TGI: > 100 µM
[50]
  TGI: > 100 µM
[51]
  TGI: > 100 µM
[52]
  TGI: > 100 µM
[53]
  TGI: > 100 µM
[54]
  TGI: > 100 µM
[55]
  TGI: > 100 µM
[56]
  TGI: > 100 µM
